Columns and labels:
[1] = molecular target: Tyrosine-protein kinase JAK1 (Homo sapiens, UniProt P23458); experiment: Inhibition of recombinant human JAK1 using MGEEPLYWSFPAKKK as substrate incubated for 40 mins in presence of Mg/ATP mixture by [gamma p33]-ATP based scintillation counting method
[2] = molecular target: Tyrosine-protein kinase JAK2 (Homo sapiens, UniProt O60674); experiment: Inhibition of recombinant human JAK2 using KTFCGTPEYLAPEVRREPRILSEEEQEMFRDFDYIADWC as substrate incubated for 40 mins in presence of Mg/ATP mixture by [gamma p33]-ATP based scintillation counting method
[3] = molecular target: T1, Tyrosine-protein kinase JAK3 (Homo sapiens, UniProt P52333); experiment: Inhibition of recombinant human JAK3 using GGEEEEYFELVKKKK as substrate incubated for 40 mins in presence of Mg/ATP mixture by [gamma p33]-ATP based scintillation counting method
T1 sequence (P52333 whole entry): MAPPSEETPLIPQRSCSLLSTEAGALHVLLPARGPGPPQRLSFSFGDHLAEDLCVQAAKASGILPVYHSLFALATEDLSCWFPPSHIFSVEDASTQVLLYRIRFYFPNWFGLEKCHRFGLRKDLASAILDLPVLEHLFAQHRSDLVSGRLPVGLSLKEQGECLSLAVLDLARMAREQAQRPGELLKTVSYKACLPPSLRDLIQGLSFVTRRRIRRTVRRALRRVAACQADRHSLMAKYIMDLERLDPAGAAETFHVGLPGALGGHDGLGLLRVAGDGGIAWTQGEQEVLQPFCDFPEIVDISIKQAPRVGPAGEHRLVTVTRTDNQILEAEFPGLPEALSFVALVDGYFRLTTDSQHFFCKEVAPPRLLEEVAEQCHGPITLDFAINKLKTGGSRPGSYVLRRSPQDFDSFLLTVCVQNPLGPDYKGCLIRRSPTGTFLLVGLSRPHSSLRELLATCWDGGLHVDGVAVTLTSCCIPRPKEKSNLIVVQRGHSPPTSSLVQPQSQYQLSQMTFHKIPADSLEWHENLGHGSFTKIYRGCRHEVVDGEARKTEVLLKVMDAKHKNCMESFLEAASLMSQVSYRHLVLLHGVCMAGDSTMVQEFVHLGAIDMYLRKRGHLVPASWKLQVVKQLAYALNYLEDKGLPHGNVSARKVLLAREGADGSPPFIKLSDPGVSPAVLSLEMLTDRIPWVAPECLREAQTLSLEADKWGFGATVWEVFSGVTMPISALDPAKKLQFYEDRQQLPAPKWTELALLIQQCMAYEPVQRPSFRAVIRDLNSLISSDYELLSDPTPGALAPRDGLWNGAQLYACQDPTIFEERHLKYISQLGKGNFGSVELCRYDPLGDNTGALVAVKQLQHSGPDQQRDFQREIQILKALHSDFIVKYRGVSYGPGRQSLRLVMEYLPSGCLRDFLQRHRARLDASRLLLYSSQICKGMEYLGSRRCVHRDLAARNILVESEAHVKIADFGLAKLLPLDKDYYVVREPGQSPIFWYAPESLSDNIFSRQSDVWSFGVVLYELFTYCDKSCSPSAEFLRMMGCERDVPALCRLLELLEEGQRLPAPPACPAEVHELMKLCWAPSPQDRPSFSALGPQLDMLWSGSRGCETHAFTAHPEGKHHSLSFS

[4] = molecular target: Non-receptor tyrosine-protein kinase TYK2 (Homo sapiens, UniProt P29597); experiment: Inhibition of recombinant human TYK2 using GGMEDIYFEFMGGKKK as substrate incubated for 40 mins in presence of Mg/ATP mixture by [gamma p33]-ATP based scintillation counting method
[5] = organism: Homo sapiens; experiment: Selectivity index, ratio of IC50 for inhibition of recombinant human JAK2 to IC50 for inhibition of recombinant human JAK1
[6] = organism: Homo sapiens; experiment: Selectivity index, ratio of IC50 for inhibition of recombinant human TYK2 to IC50 for inhibition of recombinant human JAK1

Tyrosine-protein kinase JAK2, sequence (O60674 whole entry): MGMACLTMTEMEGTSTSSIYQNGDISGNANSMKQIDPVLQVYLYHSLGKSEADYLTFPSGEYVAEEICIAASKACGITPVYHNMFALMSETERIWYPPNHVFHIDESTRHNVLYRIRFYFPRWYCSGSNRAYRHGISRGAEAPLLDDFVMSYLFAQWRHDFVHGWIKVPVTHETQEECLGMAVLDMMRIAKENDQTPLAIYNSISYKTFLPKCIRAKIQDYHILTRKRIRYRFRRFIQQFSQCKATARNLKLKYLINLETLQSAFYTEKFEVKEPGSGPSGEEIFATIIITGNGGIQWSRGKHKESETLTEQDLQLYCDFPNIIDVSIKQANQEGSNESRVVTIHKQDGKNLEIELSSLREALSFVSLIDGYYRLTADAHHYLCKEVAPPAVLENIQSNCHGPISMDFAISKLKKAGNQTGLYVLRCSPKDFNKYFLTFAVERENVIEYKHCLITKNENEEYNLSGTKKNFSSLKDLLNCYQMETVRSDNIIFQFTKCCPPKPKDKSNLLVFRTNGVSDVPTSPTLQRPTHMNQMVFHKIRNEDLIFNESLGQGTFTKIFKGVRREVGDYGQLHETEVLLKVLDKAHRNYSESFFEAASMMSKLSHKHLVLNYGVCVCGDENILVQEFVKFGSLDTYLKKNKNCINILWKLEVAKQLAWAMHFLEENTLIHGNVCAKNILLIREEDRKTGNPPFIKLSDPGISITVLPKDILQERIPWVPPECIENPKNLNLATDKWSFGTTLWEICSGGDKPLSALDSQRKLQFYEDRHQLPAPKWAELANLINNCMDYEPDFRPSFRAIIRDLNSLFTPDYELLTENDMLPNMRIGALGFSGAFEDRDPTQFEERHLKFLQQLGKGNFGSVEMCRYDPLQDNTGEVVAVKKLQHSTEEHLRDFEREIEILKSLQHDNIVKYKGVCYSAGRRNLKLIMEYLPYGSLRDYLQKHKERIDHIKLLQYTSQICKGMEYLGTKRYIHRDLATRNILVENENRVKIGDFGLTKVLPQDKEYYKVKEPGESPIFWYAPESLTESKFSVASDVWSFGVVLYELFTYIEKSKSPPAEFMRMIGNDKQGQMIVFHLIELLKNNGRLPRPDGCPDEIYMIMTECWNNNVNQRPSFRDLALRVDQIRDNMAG
Tyrosine-protein kinase JAK1, sequence (P23458 whole entry): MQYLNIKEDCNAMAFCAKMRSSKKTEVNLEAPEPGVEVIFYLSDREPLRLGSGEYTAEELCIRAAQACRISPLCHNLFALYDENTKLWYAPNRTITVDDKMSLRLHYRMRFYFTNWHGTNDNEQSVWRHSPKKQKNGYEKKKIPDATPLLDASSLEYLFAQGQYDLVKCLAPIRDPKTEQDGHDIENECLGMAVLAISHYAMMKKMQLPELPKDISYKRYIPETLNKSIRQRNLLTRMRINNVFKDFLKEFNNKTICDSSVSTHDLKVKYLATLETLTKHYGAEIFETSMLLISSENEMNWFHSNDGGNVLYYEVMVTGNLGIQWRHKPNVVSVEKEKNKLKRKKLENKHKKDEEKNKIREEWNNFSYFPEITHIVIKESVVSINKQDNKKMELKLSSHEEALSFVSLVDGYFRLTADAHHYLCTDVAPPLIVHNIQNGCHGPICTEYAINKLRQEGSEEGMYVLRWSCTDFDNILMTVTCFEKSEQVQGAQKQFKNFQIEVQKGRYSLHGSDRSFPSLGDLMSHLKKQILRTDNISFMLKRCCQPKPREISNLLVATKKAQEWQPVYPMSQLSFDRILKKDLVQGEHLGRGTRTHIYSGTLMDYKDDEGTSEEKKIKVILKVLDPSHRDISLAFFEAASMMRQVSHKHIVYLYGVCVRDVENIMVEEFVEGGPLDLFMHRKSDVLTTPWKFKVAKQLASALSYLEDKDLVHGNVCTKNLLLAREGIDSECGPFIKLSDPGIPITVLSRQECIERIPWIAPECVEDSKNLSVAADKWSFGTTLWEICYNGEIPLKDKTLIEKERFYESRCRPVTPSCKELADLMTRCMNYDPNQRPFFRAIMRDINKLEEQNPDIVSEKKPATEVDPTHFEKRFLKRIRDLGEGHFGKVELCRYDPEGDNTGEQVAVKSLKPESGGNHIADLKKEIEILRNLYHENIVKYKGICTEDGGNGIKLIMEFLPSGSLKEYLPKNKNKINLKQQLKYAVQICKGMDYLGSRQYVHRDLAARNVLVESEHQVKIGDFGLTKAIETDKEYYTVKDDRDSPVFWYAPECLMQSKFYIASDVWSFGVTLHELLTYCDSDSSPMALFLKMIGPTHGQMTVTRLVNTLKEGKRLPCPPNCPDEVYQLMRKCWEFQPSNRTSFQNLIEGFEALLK
Non-receptor tyrosine-protein kinase TYK2, sequence (P29597 whole entry): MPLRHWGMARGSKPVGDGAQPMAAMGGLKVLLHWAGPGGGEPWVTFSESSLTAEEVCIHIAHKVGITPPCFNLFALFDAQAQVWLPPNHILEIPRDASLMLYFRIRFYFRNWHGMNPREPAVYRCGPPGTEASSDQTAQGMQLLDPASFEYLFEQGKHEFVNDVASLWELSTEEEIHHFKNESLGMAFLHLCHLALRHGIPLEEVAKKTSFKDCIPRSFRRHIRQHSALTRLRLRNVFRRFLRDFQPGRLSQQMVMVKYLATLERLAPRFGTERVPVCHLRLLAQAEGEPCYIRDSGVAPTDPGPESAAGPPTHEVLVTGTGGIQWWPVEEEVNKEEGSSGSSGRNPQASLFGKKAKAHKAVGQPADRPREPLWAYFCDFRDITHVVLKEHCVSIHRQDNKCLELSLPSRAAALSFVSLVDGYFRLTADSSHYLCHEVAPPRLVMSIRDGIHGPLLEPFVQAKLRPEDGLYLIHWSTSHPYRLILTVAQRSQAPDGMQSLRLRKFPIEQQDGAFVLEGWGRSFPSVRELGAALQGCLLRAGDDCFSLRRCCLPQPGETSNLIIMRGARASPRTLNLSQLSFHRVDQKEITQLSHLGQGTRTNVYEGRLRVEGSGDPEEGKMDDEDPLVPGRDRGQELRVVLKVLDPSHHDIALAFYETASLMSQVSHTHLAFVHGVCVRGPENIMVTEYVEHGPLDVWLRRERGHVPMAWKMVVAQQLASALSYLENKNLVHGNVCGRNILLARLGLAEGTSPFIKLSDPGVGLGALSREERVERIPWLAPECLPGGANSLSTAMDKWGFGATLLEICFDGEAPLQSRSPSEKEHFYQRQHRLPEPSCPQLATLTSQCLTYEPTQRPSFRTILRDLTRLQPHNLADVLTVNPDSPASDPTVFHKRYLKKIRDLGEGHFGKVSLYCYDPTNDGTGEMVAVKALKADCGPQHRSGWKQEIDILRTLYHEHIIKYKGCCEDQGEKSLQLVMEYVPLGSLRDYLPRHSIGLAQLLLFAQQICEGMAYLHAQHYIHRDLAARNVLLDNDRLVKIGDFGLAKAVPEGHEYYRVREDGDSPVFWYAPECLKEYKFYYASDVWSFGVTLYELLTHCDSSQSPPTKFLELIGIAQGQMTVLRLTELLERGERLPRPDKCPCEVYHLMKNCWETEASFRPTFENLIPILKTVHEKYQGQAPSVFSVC

| Compound | IC50 [1] | IC50 [2] | IC50 [3] | IC50 [4] | Ratio IC50 [5] | Ratio IC50 [6] |
| --- | --- | --- | --- | --- | --- | --- |
| O=C(Nc1nc2cccc(C3=CC[C@@H](NC(=O)[C@H]4CC4(F)F)CC3)n2n1)C1CC1 | 166 nM | – | – | 942 nM | – | 5.7 |
| O=C(Nc1nc2cccc([C@H]3CC[C@H](NC(=O)[C@@H]4CC4(F)F)CC3)n2n1)C1CC1 | 181 nM | 4750 nM | > 10000 nM | 1740 nM | 26.3 | 9.6 |
| O=C(Nc1nc2cccc([C@H]3CC[C@@H](NC(=O)[C@H]4CC4(F)F)CC3)n2n1)C1CC1 | 48 nM | 962 nM | > 10000 nM | 455 nM | 20 | 9.5 |
| CC(C)(C#N)C(=O)N1CC2(CCC(c3cccc4nc(NC(=O)C5CC5)nn34)CC2)C1 | 20 nM | – | 9670 nM | 106 nM | – | – |
| O=C(Nc1nc2cccc(C3=CCN(C(=O)C4CC4(F)F)C3)n2n1)C1CC1 (stereo not drawn) | – | – | > 10000 nM | – | – | – |
| O=C(Nc1nc2cccc(C3=CCC(NC(=O)C4CC4(F)F)CC3)n2n1)C1CC1 (stereo not drawn) | – | – | – | – | 11.9 | 3.6 |
| O=C(Nc1nc2cccc([C@H]3CC[C@H](NC(=O)[C@H]4CC4(F)F)CC3)n2n1)C1CC1 | 341 nM | 8070 nM | > 10000 nM | 5760 nM | 23.7 | 16.9 |
| N#CC1(C(=O)N2CC3(CCC(c4cccc5nc(NC(=O)C6CC6)nn45)CC3)C2)CC1 | 15 nM | – | > 10000 nM | 18 nM | – | – |
| O=C(Nc1nc2cccc(C3=CC[C@@H](NC(=O)[C@@H]4CC4(F)F)CC3)n2n1)C1CC1 | 163 nM | – | – | 1370 nM | – | 8.4 |
| O=C(Nc1nc2cccc(C3=CC[C@H](NC(=O)[C@@H]4CC4(F)F)CC3)n2n1)C1CC1 | 12 nM | 141 nM | 5520 nM | 78 nM | 11.8 | 6.5 |
| O=C(Nc1nc2cccc(C3=CCC(NC(=O)C4CC4)CC3)n2n1)C1CC1 (stereo not drawn) | – | – | – | – | 9.5 | 3.3 |
| O=C(Nc1nc2cccc(C3=CC[C@H](NC(=O)[C@H]4CC4(F)F)CC3)n2n1)C1CC1 | – | – | – | – | 7.4 | 4.2 |

The next lines start with the values.

| IC50 [1] | IC50 [2] | IC50 [3] | IC50 [4] | Ratio IC50 [5] | Ratio IC50 [6] | Compound |
| --- | --- | --- | --- | --- | --- | --- |
| 381 nM | 1920 nM | > 10000 nM | 570 nM | 5 | 1.5 | O=C(Nc1nc2cccc([C@@H]3CCC4(CCN(C(=O)[C@@H]5CC5(F)F)CC4)C3)n2n1)C1CC1 |
| – | – | – | – | 4.7 | 2 | O=C(Nc1nc2cccc(C3=CCN(C(=O)C4CC4)CC3)n2n1)C1CC1 |
| 63 nM | – | > 10000 nM | 830 nM | – | – | O=C(Nc1nc2cccc([C@H]3CCC4(C3)CN(C(=O)[C@@H]3CC3(F)F)C4)n2n1)C1CC1 |
| 131 nM | 2730 nM | > 10000 nM | 1530 nM | 20.8 | 11.6 | O=C(Nc1nc2cccc(C3CCC4(CC3)CCN(C(=O)CC(F)(F)F)C4)n2n1)C1CC1 (stereo not drawn) |
| 54 nM | 294 nM | > 10000 nM | 155 nM | 5.4 | 2.9 | O=C(Nc1nc2cccc(C3CCC4(CC3)CCN(C(=O)CC(F)(F)F)CC4)n2n1)C1CC1 |
| 114 nM | – | > 10000 nM | 581 nM | – | – | N#CCN1CC2(CCC(c3cccc4nc(NC(=O)C5CC5)nn34)CC2)C1 |
| 63 nM | 998 nM | 9390 nM | 829 nM | 15.8 | 13.2 | O=C(Nc1nc2cccc([C@H]3CCC4(CCN(C(=O)[C@@H]5CC5(F)F)CC4)C3)n2n1)C1CC1 |
| 65 nM | – | > 10000 nM | 371 nM | – | – | N#CCCN1CC2(CCC(c3cccc4nc(NC(=O)C5CC5)nn34)CC2)C1 |
| 75 nM | 789 nM | 7350 nM | 692 nM | 10.5 | 9.2 | O=C(Nc1nc2cccc(C3CCC4(CC3)CCN(C(=O)[C@H]3CC3(F)F)C4)n2n1)C1CC1 (stereo partly drawn) |
| 176 nM | – | > 10000 nM | 404 nM | – | – | O=C(Nc1nc2cccc([C@@H]3CCC4(C3)CN(C(=O)[C@@H]3CC3(F)F)C4)n2n1)C1CC1 |
| – | – | – | – | 2.1 | 5.4 | O=C(Nc1nc2cccc(C3=CCN(C(=O)C4(F)CC4)C3)n2n1)C1CC1 |
| 20 nM | 80 nM | 2320 nM | 26 nM | 4 | 1.3 | N#CCC(=O)N1CCC2(CCC(c3cccc4nc(NC(=O)C5CC5)nn34)CC2)CC1 |
| 68 nM | 520 nM | > 10000 nM | 278 nM | 7.6 | 4.1 | N#CCC(=O)N1CCC2(CCC(c3cccc4nc(NC(=O)C5CC5)nn34)CC2)C1 (stereo not drawn) |
| – | – | – | – | 7.7 | 3.3 | O=C(Nc1nc2cccc(C3CCC(NC(=O)C4CC4(F)F)CC3)n2n1)C1CC1 (stereo not drawn) |

From ChEMBL document CHEMBL5150077, “Identification of TUL01101: A Novel Potent and Selective JAK1 Inhibitor for the Treatment of Rheumatoid Arthritis” (J Med Chem, 2022)
